Mutagenic call data for 15 compounds are collected here from PubChem BioAssay AID1259407 (Chemical Carcinogenesis Research Information System (CCRIS), 2018).

The test system of this series is CCRIS mutagenicity, Ames/micronucleus/aberration tests. Nature of the series: CCRIS mutagenicity studies.
Setting [1] is: Test System: AMES SALMONELLA TYPHIMURIUM, Strain/Indicator: TA100, Metabolic Activation: NONE, Method: STANDARD PLATE.
Where [2] appears, read: Test System: AMES SALMONELLA TYPHIMURIUM, Strain/Indicator: TA98, Metabolic Activation: NONE, Method: PREINCUBATION
Setting [3] is: Test System: AMES SALMONELLA TYPHIMURIUM, Strain/Indicator: TA100, Metabolic Activation: NONE, Method: PREINCUBATION
Setting [4] is: Test System: AMES SALMONELLA TYPHIMURIUM, Strain/Indicator: TA98, Metabolic Activation: NONE, Method: STANDARD PLATE.
Where [5] appears, read: Test System: AMES SALMONELLA TYPHIMURIUM, Strain/Indicator: TA98, Metabolic Activation: RAT, LIVER, S-9, AROCLOR 1254, Method: STANDARD PLATE.
The mark [6] stands for this setting: Test System: AMES SALMONELLA TYPHIMURIUM, Strain/Indicator: TA100, Metabolic Activation: RAT, LIVER, S-9, AROCLOR 1254, Method: STANDARD PLATE.
The mark [7] stands for this setting: Test System: AMES SALMONELLA TYPHIMURIUM, Strain/Indicator: TA1535, Metabolic Activation: NONE, Method: STANDARD PLATE.
The mark [8] stands for this setting: Test System: AMES SALMONELLA TYPHIMURIUM, Strain/Indicator: TA1535, Metabolic Activation: RAT, LIVER, S-9, AROCLOR 1254, Method: STANDARD PLATE.
Setting [9] is: Test System: AMES SALMONELLA TYPHIMURIUM, Strain/Indicator: TA1537, Metabolic Activation: RAT, LIVER, S-9, AROCLOR 1254, Method: STANDARD PLATE.

Calls of active or inactive are those of the source. The rule behind the calls is not given here.

`C1=Cc2cc3cccc4c5ccccc5c5ccc1c2c5c34`: the mutagenic call (Test System: AMES SALMONELLA TYPHIMURIUM, Strain/Indicator: TA98, Metabolic Activation: RAT, LIVER, S-9, AROCLOR 1254 (0.14 OR 0.41 MG), Method: STANDARD PLATE) is “active; positive”; the mutagenic call (Test System: AMES SALMONELLA TYPHIMURIUM, Strain/Indicator: TA100, Metabolic Activation: RAT, LIVER, S-9, AROCLOR 1254 (0.14 OR 0.41 MG), Method: STANDARD PLATE) is “active; positive”; the mutagenic call (Test System: AMES SALMONELLA TYPHIMURIUM, Strain/Indicator: TA104, Metabolic Activation: RAT, LIVER, S-9, AROCLOR 1254 (0.14 OR 0.41 MG), Method: STANDARD PLATE) was “active; positive”; the mutagenic call (Test System: AMES SALMONELLA TYPHIMURIUM, Strain/Indicator: TA1535, Metabolic Activation: RAT, LIVER, S-9, AROCLOR 1254 (0.14 OR 0.41 MG), Method: STANDARD PLATE) was “inactive; negative”; the mutagenic call (Test System: AMES SALMONELLA TYPHIMURIUM, Strain/Indicator: TA1537, Metabolic Activation: RAT, LIVER, S-9, AROCLOR 1254 (0.14 OR 0.41 MG), Method: STANDARD PLATE) was “active; positive”; the mutagenic call (Test System: AMES SALMONELLA TYPHIMURIUM, Strain/Indicator: TA1538, Metabolic Activation: RAT, LIVER, S-9, AROCLOR 1254 (0.14 OR 0.41 MG), Method: STANDARD PLATE) was “active; positive”.
For the compound `O=c1ccc2ccccc2[nH]1`, the mutagenic call under setting [1] was “inactive; negative” and the mutagenic call (Test System: AMES SALMONELLA TYPHIMURIUM, Strain/Indicator: TA100, Metabolic Activation: RAT, LIVER, S-9, AROCLOR 1254 (10% OR 20%), Method: STANDARD PLATE) is “inactive; negative”.
Take `O=c1c(O)c2c(c3c1ccc1c3cccn1O)O2`: the mutagenic call under setting [1] is “inactive; negative”.
With `CCN(CC)CCCNc1ccc2ncn3c4ccc(O)cc4c(=O)c1c23`, the mutagenic call (Test System: CHINESE HAMSTER V-79, Strain/Indicator: V-79 (HGPRT)/6-THIOGUANINE, Metabolic Activation: NONE) is “active; positive”.
On to `CCC(=O)OCc1ccc([N+](=O)[O-])cc1`, for which the mutagenic call reads like this: under setting [2], “inactive; negative”; (Test System: AMES SALMONELLA TYPHIMURIUM, Strain/Indicator: TA100(NR), Metabolic Activation: NONE, Method: PREINCUBATION) “inactive; negative”; under setting [3], “active; positive”; (Test System: AMES SALMONELLA TYPHIMURIUM, Strain/Indicator: TA100, Metabolic Activation: RAT, LIVER, S-9, AROCLOR 1254, Method: PREINCUBATION) “active; positive”.
Take `O=C(O)c1cc([N+](=O)[O-])cc2cccnc12`: the mutagenic call was “active; positive” under setting [4]; “active; positive” under setting [5]; “inactive; negative” under setting [1]; “active; positive” under setting [6]; “inactive; negative” under setting [7]; “inactive; negative” under setting [8]. The mutagenic call is, setting by setting: (Test System: AMES SALMONELLA TYPHIMURIUM, Strain/Indicator: TA1537, Metabolic Activation: NONE, Method: STANDARD PLATE) “inactive; negative”; under setting [9], “inactive; negative”.
In the case of `O=c1c2ccccc2[nH]c2ccccc12`, the mutagenic call (Test System: AMES SALMONELLA TYPHIMURIUM, Strain/Indicator: TA100, Metabolic Activation: GUINEA PIG, LIVER, S-9, 3-METHYLCHOLANTHRENE, Method: STANDARD PLATE) was “inactive; negative”.
For `O=CCO`, the mutagenic call under setting [3] is “inactive; negative”.
Take `O=NN(CCCl)C(=O)NC1CCCCC1`: the mutagenic call is, setting by setting: (End Point: IN VITRO CHROMOSOMAL ABERRATIONS, Test System: HUMAN HCT116/3-6 CELLS, Metabolic Activation: NONE) “active; positive”; (End Point: IN VITRO CHROMOSOMAL ABERRATIONS, Test System: HUMAN HCT116 CELLS, Metabolic Activation: NONE) “active; positive”; (End Point: IN VITRO CHROMOSOMAL ABERRATIONS, Test System: HUMAN MT1 CELLS, Metabolic Activation: NONE) “active; positive”; (End Point: IN VITRO CHROMOSOMAL ABERRATIONS, Test System: HUMAN TK6 CELLS, Metabolic Activation: NONE) “active; positive”; (Test System: AMES SALMONELLA TYPHIMURIUM, Strain/Indicator: TA97, Metabolic Activation: NONE, Method: STANDARD PLATE) “inactive; negative”; (Test System: AMES SALMONELLA TYPHIMURIUM, Strain/Indicator: TA97, Metabolic Activation: RAT, LIVER, S-9, PHENOBARBITAL AND ALPHA-NAPHTHOFLAVONE, Method: STANDARD PLATE) “inactive; negative”. The mutagenic call under setting [2] is “inactive; negative”; the mutagenic call under setting [4] was “inactive; negative”; the mutagenic call (Test System: AMES SALMONELLA TYPHIMURIUM, Strain/Indicator: TA98, Metabolic Activation: RAT, LIVER, S-9, PHENOBARBITAL AND ALPHA-NAPHTHOFLAVONE, Method: STANDARD PLATE) is “inactive; negative”; the mutagenic call (Test System: AMES SALMONELLA TYPHIMURIUM, Strain/Indicator: TA98, Metabolic Activation: S-9, Method: PREINCUBATION) is “inactive; negative”; the mutagenic call under setting [3] is “active; positive”; the mutagenic call under setting [1] is “active; positive”. The mutagenic call is “active; positive” (Test System: AMES SALMONELLA TYPHIMURIUM, Strain/Indicator: TA100, Metabolic Activation: RAT, LIVER, S-9, PHENOBARBITAL AND ALPHA-NAPHTHOFLAVONE, Method: STANDARD PLATE); “active; positive” (Test System: AMES SALMONELLA TYPHIMURIUM, Strain/Indicator: TA100, Metabolic Activation: S-9, Method: PREINCUBATION); “active; positive” under setting [7]; “active; positive” (Test System: AMES SALMONELLA TYPHIMURIUM, Strain/Indicator: TA1535, Metabolic Activation: RAT, LIVER, S-9, PHENOBARBITAL AND ALPHA-NAPHTHOFLAVONE, Method: STANDARD PLATE); “active; positive” (Test System: CHINESE HAMSTER V-79, Strain/Indicator: V-79/6-THIOGUANINE, Metabolic Activation: NONE, Method: STANDARD PLATE).
With `O=C1CCC(=O)N1c1ccc(Cl)c(Cl)c1`, the mutagenic call by setting is: under setting [4], “inactive; negative”; under setting [5], “inactive; negative”; under setting [1], “inactive; negative”; under setting [6], “inactive; negative”.
For `C1=Cc2cc3c4ccccc4ccc3c3cccc1c23`, the mutagenic call was “inactive; negative” under setting [4]; “active; positive” (Test System: AMES SALMONELLA TYPHIMURIUM, Strain/Indicator: TA98, Metabolic Activation: RAT, LIVER, S-9, AROCLOR 1254 (0.127 OR 1.27 MG S-9 PROTEIN), Method: STANDARD PLATE); “active; positive” under setting [5]; “active; positive” under setting [6]; “inactive; negative” under setting [8]; “active; positive” under setting [9]. Further, under “Test System: AMES SALMONELLA TYPHIMURIUM, Strain/Indicator: TA1538, Metabolic Activation: RAT, LIVER, S-9, AROCLOR 1254, Method: STANDARD PLATE”, the mutagenic call is “active; positive”.
For `CC1c2ccccc2-c2ccc(F)cc21` (stereo not given), the mutagenic call under setting [6] is “active; positive”.
As to `COc1ccc(CC2CO2)cc1` (stereo not given), the mutagenic call reads like this: under setting [3], “active; positive”; under setting [1], “active; positive”; (Test System: AMES SALMONELLA TYPHIMURIUM, Strain/Indicator: TA1535, Metabolic Activation: NONE, Method: PREINCUBATION) “active; positive”; under setting [7], “active; positive”.
In the case of `CNc1ccc(C(=C2C=CC(=[N+](C)C)C=C2)c2ccc(N(C)C)cc2)cc1`, the mutagenic call (Test System: AMES SALMONELLA TYPHIMURIUM, Strain/Indicator: TA100, Method: PREINCUBATION) was “active; positive”.
Regarding `OCc1c2ccccc2c(CO)c2c1ccc1ccccc12`, the mutagenic call reads like this: (Test System: AMES SALMONELLA TYPHIMURIUM, Strain/Indicator: TA98, Metabolic Activation: RAT, LIVER, S-9, NADPH GENERATING SYSTEM, Method: PREINCUBATION) “inactive; negative”; (Test System: AMES SALMONELLA TYPHIMURIUM, Strain/Indicator: TA98, Metabolic Activation: RAT, LIVER, S-105, PAPS GENERATING SYSTEM, Method: PREINCUBATION) “active; positive”.
